Assay results taken from patent publication US10208074B2, “Pyrazole compounds and method for making and using the compounds” (Rigel Pharmaceuticals, Inc., priority 2015, dated 2019).
pEC50: −log10 of the molar value. Structures can show the parent of a compound that is named as a salt. Where two headings read alike, the source gives them in different places.

Assays:
IL-23p19 = assay: LPS induced IL23p19 in THP-1 cells (with IFNγ primed) assay; assay type: cell-based, Human; conditions: for pEC50: THP-1 cells, IFNγ primed, LPS 1 ug/mL, 18 hours, 10 pt, read-out: IL23-p19 ELISA, THP1-IFNy, LPS, 10 pt EC50
How it was run: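 THP-1 cells primed ~18 h with IFNγ (50 ng/mL), pre-incubated 1 h with compound at 37 °C, then stimulated 18 h with LPS (1 ug/mL final). Supernatant IL-23p19 measured by sandwich ELISA with chemiluminescent read-out; EC50 from curve fitting. Toxicity checked on the remaining cells by Cell Titer Glo.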

IL-23 (p19/p40) = assay: IL23-p19 ELISA, Dendritic, LPS (compound screening using DC cells); assay type: cell-based, Human; conditions: for pEC50: PBMC-derived DC cells, IFNγ primed, LPS 1 μg/ml, 18 hours, 10 pt, read-out: IL23-p19 ELISA, Dendritic, LPS, 10 pt, EC50
How it was run: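 Human PBMC-derived dendritic cells (7 d GM-CSF 100 ng/ml + IL-4 20 ng/ml), primed 24 h with IFNγ 50 ng/ml, pre-incubated 1 h with compound, then stimulated 18 h with LPS 1 μg/ml. Supernatant IL-23 measured by p19-capture/p40-detection chemiluminescent ELISA; CellTiter Glo checks cytotoxicity.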

SMILES	pEC50 (IL-23p19; Homo sapiens, THP-1, 18 h)	pEC50 (IL-23 (p19/p40); Homo sapiens, 18 h)	further results
CCOCCn1cc(NC(=O)c2ccc(-c3cn[nH]c3)o2)c(-c2nccs2)n1 [Compound I-118, N-(1-(2-ethoxyethyl)-3-(thiazol-2-yl)-1H-pyrazol-4-yl)-5-(1H-pyrazol-4-yl)furan-2-carboxamide formate]	–	–	pEC50 (IL-23p19; formate): 7.17; pEC50 (IL-23 (p19/p40); formate): 6.79
CC1(Cn2cc(-c3ccc(C(=O)Nc4cn(CC5(C)COC5)nc4-c4ccccn4)o3)cn2)COC1 [Compound I-48, 5-(1-((3-methyloxetan-3-yl)methyl)-1H-pyrazol-4-yl)-N-(1-((3-methyloxetan-3-yl)methyl)-3-(pyridin-2-yl)-1H-pyrazol-4-yl)furan-2-carboxamide formate]	5.26	5.12	–
Cc1oc(=O)oc1Cn1cc(-c2nc(C(=O)Nc3cn(C)nc3-c3ccccn3)cs2)cn1 [II-4, 2-(1-((5-methyl-2-oxo-1,3-dioxol-4-yl)methyl)-1H-pyrazol-4-yl)-N-(1-methyl-3-(pyridin-2-yl)-1H-pyrazol-4-yl)thiazole-4-carboxamide]	7.06	6.51	–
CC(C)NC(=O)N1CC(n2cc(NC(=O)c3ccc(-c4cn[nH]c4)o3)c(-c3ccccn3)n2)C1 [Compound I-85, 3-[4-{5-(1H-Pyrazol-4-yl)furan-2-carboxamido}-3-(pyridine-2-yl)-1H-pyrazol-1-yl]-N-isopropylazetidine-1-carboxamide, free base]	7.12	7.71	–
CCO[C@H]1C[C@@H](n2cc(NC(=O)c3ccc(-c4cn[nH]c4)o3)c(-c3nccs3)n2)C1 [Compound I-62, N-(1-((1s,3s)-3-ethoxycyclobutyl)-3-(thiazol-2-yl)-1H-pyrazol-4-yl)-5-(1H-pyrazol-4-yl)furan-2-carboxamide formate]	7.32	6.94	–
COc1ccc(Cn2cc(-c3nc(C(=O)Nc4cn(C5CC(OC)C5)nc4-c4ccccn4)cs3)cn2)cc1 (stereo not drawn) [II-51, 2-(1-(4-methoxybenzyl)-1H-pyrazol-4-yl)-N-(1-(3-methoxycyclobutyl)-3-(pyridin-2-yl)-1H-pyrazol-4-yl)thiazole-4-carboxamide]	5.44	4.57	–
CC(C)C(=O)N1CC(n2cc(NC(=O)c3ccc(-c4cn[nH]c4)o3)c(-c3ccccn3)n2)C1 [Compound I-95, N-[1-{1-Isobutyrylazetidin-3-yl}-3-(pyridine-2-yl)-1H-pyrazol-4-yl]-5-(1H-pyrazol-4-yl)furan-2-carboxamide, formate salt]	7.17	7.47	–
CC(=O)N1CC(n2cc(NC(=O)c3ccc(-c4cn[nH]c4)o3)c(-c3ccccn3)n2)C1 [Compound I-83, N-{1-(1-Acetylazetidin-3-yl)-3-(pyridine-2-yl)-1H-pyrazol-4-yl}-5-(1H-pyrazol-4-yl)furan-2-carboxamide, free base]	7.46	7.03	–
O=C(Nc1cn(C2CN(C(=O)NC3CC3)C2)nc1-c1ccccn1)c1ccc(-c2cn[nH]c2)o1 [Compound I-87, 3-[4-{5-(1H-Pyrazol-4-yl)furan-2-carboxamido}-3-(pyridine-2-yl)-1H-pyrazol-1-yl]-N-cyclopropylazetidine-1-carboxamide, formate salt]	7.36	6.98	–
Cc1n[nH]cc1-c1nc(C(=O)Nc2cn(C(F)F)nc2-c2ccccn2)cs1 [II-96, N-(1-(difluoromethyl)-3-(pyridin-2-yl)-1H-pyrazol-4-yl)-2-(3-methyl-1H-pyrazol-4-yl)thiazole-4-carboxamide]	7.08	6.34	–
CCO[C@H]1C[C@@H](n2cc(NC(=O)c3ccc(-c4cnn(C)c4)o3)c(-c3ccccn3)n2)C1 [Compound I-31, N-(1-((1,3-cis)-3-ethoxycyclobutyl)-3-(pyridin-2-yl)-1H-pyrazol-4-yl)-5-(1-methyl-1H-pyrazol-4-yl)furan-2-carboxamide]	5.20	5.90	–
CCO[C@H]1C[C@@H](n2cc(NC(=O)c3csc(-c4cnn(COP(=O)(O)O)c4)n3)c(-c3ccccn3)n2)C1 [II-84, (4-(4-((1-((1,3-cis)-3-ethoxycyclobutyl)-3-(pyridin-2-yl)-1H-pyrazol-4-yl)carbamoyl)thiazol-2-yl)-1H-pyrazol-1-yl)methyl phosphate Tris salt]	–	–	pEC50 (IL-23p19): 7.07; pEC50 (IL-23 (p19/p40)): 6.52
Cn1cc(NC(=O)c2csc(-c3cnn(COP(=O)(O)O)c3)n2)c(-c2ccccn2)n1 [II-35, (4-(4-((1-methyl-3-(pyridin-2-yl)-1H-pyrazol-4-yl)carbamoyl)thiazol-2-yl)-1H-pyrazol-1-yl)methyl dihydrogen phosphate]	6.69	6.53	–
CN(C)C(=O)n1cc(NC(=O)c2csc(-c3cn[nH]c3)n2)c(-c2ccccn2)n1 [II-125, N-(1-(dimethylcarbamoyl)-3-(pyridin-2-yl)-1H-pyrazol-4-yl)-2-(1H-pyrazol-4-yl)thiazole-4-carboxamide]	5.91	4.56	–
CN(C)[C@H]1C[C@@H](n2cc(NC(=O)c3csc(-c4cn[nH]c4)n3)c(-c3ccccn3)n2)C1 [II-15, N-(1-((1s,3s)-3-(dimethylamino)cyclobutyl)-3-(pyridin-2-yl)-1H-pyrazol-4-yl)-2-(1H-pyrazol-4-yl)thiazole-4-carboxamide]	8.19	8.02	–
Cn1cc(-c2ccc(C(=O)Nc3cn(CC(C)(C)O)nc3-c3ccccn3)o2)cn1 [Compound I-1, N-(1-(2-hydroxy-2-methylpropyl)-3-(pyridin-2-yl)-1H-pyrazol-4-yl)-5-(1-methyl-1H-pyrazol-4-yl)furan-2-carboxamide 2,2,2-trifluoroacetate]	–	–	EC50 (IL-23p19; Homo sapiens, THP-1, 18 h, read-out: IL23-p19 ELISA, THP1-IFNy, LPS, 10 pt EC50 (μM)): 5.66 µM; EC50 (IL-23 (p19/p40); Homo sapiens, 18 h, read-out: IL23-p19 ELISA, Dendritic, LPS, 10 pt, EC50 (μM)): 3.73 µM
N#Cc1nn([C@H]2C[C@@H](O)C2)cc1NC(=O)c1csc(-c2cn[nH]c2)n1 [II-136, N-(3-cyano-1-((1s,3s)-3-hydroxycyclobutyl)-1H-pyrazol-4-yl)-2-(1H-pyrazol-4-yl)thiazole-4-carboxamide]	5.92	4.97	–
CCO[C@H]1C[C@@H](n2cc(NC(=O)c3csc(-c4cnn(COP(=O)(O)O)c4)n3)c(-c3ccccn3)n2)C1 [II-80, (4-(4-((1-((1,3-cis)-3-ethoxycyclobutyl)-3-(pyridin-2-yl)-1H-pyrazol-4-yl)carbamoyl)thiazol-2-yl)-1H-pyrazol-1-yl)methyl phosphate bis-ammonium salt]	–	–	pEC50 (IL-23p19; phosphate bis-ammonium salt): 7.31; pEC50 (IL-23 (p19/p40); phosphate bis-ammonium salt): 6.61
CCO[C@H]1C[C@@H](n2cc(NC(=O)c3csc(-c4cn[nH]c4)n3)c(-c3ncccn3)n2)C1 [II-102, N-(1-((1,3-cis)-3-ethoxycyclobutyl)-3-(pyrimidin-2-yl)-1H-pyrazol-4-yl)-2-(1H-pyrazol-4-yl)thiazole-4-carboxamide]	7.21	7.26	–
COc1ccc(Cn2cc(-c3nc(C(=O)Nc4cn(CC(O)(C(F)(F)F)C(F)(F)F)nc4-c4ccccn4)cs3)cn2)cc1 [II-107, 2-(1-(4-methoxybenzyl)-1H-pyrazol-4-yl)-N-(3-(pyridin-2-yl)-1-(3,3,3-trifluoro-2-hydroxy-2-(trifluoromethyl)propyl)-1H-pyrazol-4-yl)thiazole-4-carboxamide]	5.82	5.64	–
O=C(Nc1cn(C2CC(F)(F)C2)nc1-c1ccccn1)c1csc(-c2cn[nH]c2)n1 [II-134, N-(1-(3,3-difluorocyclobutyl)-3-(pyridin-2-yl)-1H-pyrazol-4-yl)-2-(1H-pyrazol-4-yl)thiazole-4-carboxamide]	6.99	6.65	–
CCO[C@H]1C[C@@H](n2cc(NC(=O)c3csc(-c4cn[nH]c4)n3)c(-c3ccc(F)cn3)n2)C1 [II-153, N-(1-((cis)-3-ethoxycyclobutyl)-3-(5-fluoropyridin-2-yl)-1H-pyrazol-4-yl)-2-(1H-pyrazol-4-yl)thiazole-4-carboxamide]	6.13	6.85	–
CCO[C@@H]1CC[C@H](n2cc(NC(=O)c3ccc(-c4cn[nH]c4)o3)c(-c3ccccn3)n2)C1 [Compound I-132, N-(1-((1S,3R)-3-ethoxycyclopentyl)-3-(pyridin-2-yl)-1H-pyrazol-4-yl)-5-(1H-pyrazol-4-yl)furan-2-carboxamide formate]	7.09	–	pEC50 (IL-23 (p19/p40); formate): 6.99
COCCn1cc(NC(=O)c2ccc(-c3cnn(C(=O)OC(C)(C)COCc4ccc(OC)cc4)c3)o2)c(-c2ccccn2)n1 [Compound I-22, 1-((4-methoxybenzyl)oxy)-2-methylpropan-2-yl 4-(5-((1-(2-methoxyethyl)-3-(pyridin-2-yl)-1H-pyrazol-4-yl)carbamoyl)furan-2-yl)-1H-pyrazole-1-carboxylate]	6.69	5.81	–
